Measurements from patent publication US20240241137A1, “METHOD FOR SELECTING A DRUG CANDIDATE FOR TREATING OR PREVENTING OR DELAYING THE ONSET OR PROGRESSION OF AN AMYLOIDOGENIC DISEASE” (NATIONAL HEALTH RESEARCH INSTITUTES, priority 2022, published 2024).
Entries after “also recorded” stand apart in the source; their conditions may differ. Structures can show the parent of a compound that is named as a salt. Blank lines part the entries; values can stand above or below the compound they belong to.

Key:
SH—SY5Y neuronal cells = test: Cell viability (CCK8) of Aβ42-treated neuronal cells; conditions: for rescue of Aβ42-induced cell death by small baits alone: without co-treatment with LPS; for rescue effect of Aβ42-induced cell apoptosis: co-treatment with low dose (10 nM) LPS, bait 1, 10, 50, 100 μM, versus LPS alone
Description: Cell viability: Neuronal cells were maintained in MEM (GIBCO® 51200-038) supplemented with 10% FBS, 1×MEM NEAA (GIBCO® 11140-050), 1×L-glutamine (GIBCO® 25030-081), and 1×sodium pyruvate (GIBCO® 1136-070). Neuronal SH—SY5Y cells were plated at a density of 8,000 cells per well in 96-well plates and allowed to attach overnight at 37° C. in 5% CO2 humidified air. Aβ42 (100 μM), LPS (10 nM), CS (100 μM), EG (100 PM), and morin (100 μM) were then added to each medium containing 2.5% dimethyl sulfoxide and sterilized using UV light. Thereafter, the solution containing Aβ42 and LPS was mixed with CS, EG, or morin at different concentrations ranging from 1 to 100 μM and added into the plate of the SH—SY5Y cells. The medium was then replaced, and the remaining mixture was incubated for 72 h at 37° C. in 5% CO2 humidified air. Cell viability was measured using the CCK8 (SIGMA-ALDRICH® 96992) assay according to the manufacturer's protocol. Before the Aβ42 treatment of Neuronal SH—SY5Y cells, a 30 k filter was used to remove unbound LPS from the LPS-insulted Aβ42 mixture.

SH—SY5Y cells = test: Western blot of residual Aβ42 levels (clearance of Aβ42 by neuronal cells); assay type: cell-based; conditions: co-treatment with low-dose LPS, 72 h
Description: The cell mixture samples were analyzed via 12% SDS-PAGE gel electrophoresis and transferred to a PVDF membrane. […] After hybridization with the primary antibody, the membrane was washed thrice with PBST before the addition of an HRP-conjugated secondary antibody against the primary antibody. The membrane was then washed thrice with PBST before immunoreactive bands were detected by UVP ChemStudio touch ([…] JENA®). The primary antibodies used in this study included the following: anti-Aβ (6E10, BIOLEGEND® 803001), anti-actin ([…]®), and anti-GAPDH (GTX100118). Signal intensity was analyzed using VisionWorks 9.1 and statistically analyzed using GraphPad Prism 9.

LPS-Aβ42 complex = LPS-Aβ42 complex (Homo sapiens, UniProt P05067); test: Real-time mass-sensitive measurement (QCM-D) of the non-equilibrium oscillation between LPS and Aβ42; assay type: binding; conditions: for effect on the oscillatory event (lifetime) of the LPS-Aβ42 complex: bait in combination with LPS, Aβ42 100 μM, baits 20 μM; for time (apparent lifetime of the non-equilibrium interaction): mass dropping from 80% to 20%
Text: The lifetime of each sample was indicated in colored lines.
A real-time mass-sensitive measurement strategy involving quartz crystal microbalance with dissipation explorer (QCM-D) and single-channel module (Q-Sense, Biolin Scientific, Vastra Frölunda, Sweden) was used to evaluate the non-equilibrium interaction between Aβ42 and two baits (LPS and natural compounds). In addition, the steady-state circular dichroism and fluorescence spectra upon excitation of tryptophan at different temperatures were recorded to reveal the secondary structures of Aβ42 in the presence and absence of LPS. The fluorescent T jump system was utilized to confirm the adsorbing capability of LPS to Aβ42 by reading the corresponding protein dynamics. The detailed methods and materials are described as follows.
Preparation of the first bait: A solution of 0.1 mM MCL-NHS and LPS at a ratio of 1:1 was mixed in DI water. The mixture was cooled at 25° C. overnight (please refer to linker modification in the following), which spontaneously allowed the conjugation of the amine group of LPS and NHS-activated carboxylic acid of MCL. Owing to the structural complexity, it was difficult to validate the amide bond formation between MCL-NHS and LPS via NMR identification (FIG. 1). Nevertheless, the supramolecular host-guest recognition between LPS and colistin (a cyclic peptide) was used to identify the existence of MCL-modified LPS (first bait). The details of the mass-sensitive measurement are described in the next section.
Linker modification: The conjugation of the first bait (LPS) and linker (3-mercaptopanyl-n-hydroxysuccinimide ester) was mixed together for overnight reaction before anchoring on the gold sensor. The linker may be linked to one or two —NH2 groups in the core oligosaccharide part of LPS.
Real-time mass-sensitive measurement: Quartz crystal microbalance with dissipation explorer (QCM-D) and single-channel module (Q-Sense™, BIOLIN SCIENTIFIC®, Vastra Fralunda, Sweden) was used to evaluate the non-equilibrium interaction between Aβ42 and two baits (LPS and natural compounds). Prior to use, the new and reused gold sensors (a circle shape with a diameter of 1.0 cm, Q-Sense Sensors™, BIOLIN SCIENTIFIC®) were precleaned using a UV/ozone cleaner and piranha solution, which was a mixture of 30% H2O2 and concentrated H2SO4 at 1:3 (v/v). This piranha solution reacts violently with organic materials and should be handled with great care and protection. After washing of the gold sensors with LPS-free DI water, the first bait was initially inputted in a flow model at a flow rate of 0.15 mL/min under 25° C., which could be immediately anchored on a clean gold sensor. We conducted all measurements by switching between the continuous flowing model (CFM) and flowing-to-soaking model (FSM) after washing; the CFM maintained the same flow rate (0.15 mL/min), and the FSM allowed the flow velocity to slow down or completely stop. A sampling interval of 0.3 s was used to collect each frequency readout at seven overtones […], while the quartz crystal resonator of the QCN-D system settled at a fundamental resonant frequency (5 MHz). The Q-Sense system was utilized in addition to the following Sauerbrey equation to obtain the third overtone (n=3) and calculate the mass change after measurement.
where Δm is the change in the adsorbed mass of molecules; Δf is the time-responded frequency observed at the third overtone; and C is a constant that is equal to 17.7 ng/cm^2 at the resonance frequency of the quartz oscillator (5 MHz). The equation (Eq. S1) allows a direct quantitative study for mass comparison.
Operation of a real-time sensing platform: To perform the measurements, the LPS-free DI water and other solvents were allowed to continuously flow for about 1 h at 25° C. or until the baseline of two parameters (frequency and dissipation of QCM-D) reached an equilibrium state before sample operation and data collection. […]

Aβ42 [1] = biological target: T1, Aβ42 (Homo sapiens, UniProt P05067); test: Circular dichroism of Aβ42 and LPS-Aβ42; conditions: Aβ42 96 μM, LPS 160 nM, 25° C.
Description: Circular dichroism (CD): Approximately 300 μL of (96 μM) and mixtures of Aβ42 (96 μM) and LPS (160 nM) were loaded into a quartz cuvette of an optical length of 1 mm (110-1-40, HELLMA ANALYTICS®) and measured using a spectrometer equipped with a thermostat (Model 410, AVIV BIOMEDICAL®, Inc.) in 190-260 nm at 25° C. with a spectral resolution of 1 nm.

Aβ42 [2] = biological target: T1, Aβ42; test: Fluorescent T jump protein dynamics of Aβ42 and LPS-Aβ42; conditions: two-state model analysis upon T jump
Text: A fluorescent T jump system was constructed on the basis of a previous report (Yang, C. T., Chu, L. K. Phys. Chem. Chem. Phys. 2022, 24, 11079-11085), with slight modification. The aqueous solutions were sandwiched by two quartz windows (diameter=25 mm, thickness=2 mm, #14-962, EDMUND OPTICS®) separated by a drilled Teflon spacer of a thickness of 0.8 mm. The diameter of the hole in the center was 2.0 mm. The circular infrared beam, which was used to heat up water to increase the temperature, from a continuous-wave diode laser at 1550 nm was focused with two convex lenses (f=100.0 mm; f=75.6 mm) to a diameter of 1.6 mm before entering the sample cell. […] The fluorescence was collected using a MicroSpot Focusing Objective (LMU-20X-NUV, THORLABS®, 325-500 nm) and later focused through a 200 μm pinhole by a lens (f=50.0 mm) to an optical fiber (300-1,200 nm). Thereafter, the collected fluorescence light was introduced to a photomultiplier tube and filtered using an optical filter to define the detection range at 300-445 nm. The voltage signal from the photomultiplier was amplified by a factor of 20 using a voltage pre-amplifier, and further recorded using an oscilloscope.
The photobleaching-induced fluorescence decrease should be considered in the evolution of the fluorescence intensity change of Aβ42 and LPS-A342 upon T jump. […]

LPS-Aβ42 complex, sequence (P05067 672-713 limits assumed, one chain of several): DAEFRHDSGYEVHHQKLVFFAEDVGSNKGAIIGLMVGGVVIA
T1 sequence (P05067 672-713 limits assumed): as the sequence (P05067 672-713 limits assumed, one chain of several) above

effect on the oscillatory event (lifetime) of the LPS-Aβ42 complex (LPS-Aβ42 complex): did not perturb the oscillatory event
Compound: COc1cc(/C=C/C(=O)CC(=O)/C=C/c2ccc(O)c(OC)c2)ccc1O [curcumin]

ln(γ) (LPS-Aβ42 complex; [morin] 20 nM): 2.75 | Δt = tw/morin − tw/o morin (LPS-Aβ42 complex; [morin] 20 nM): 63 s | γ (lifetime increment percentage) (LPS-Aβ42 complex; [morin] 20 nM): 15.7% | time (apparent lifetime of the non-equilibrium interaction) (LPS-Aβ42 complex; [morin] 20 nM): 465 s | ln(γ) (LPS-Aβ42 complex; [morin] 50 nM): 3.47 | Δt = tw/morin − tw/o morin (LPS-Aβ42 complex; [morin] 50 nM): 129 s | γ (lifetime increment percentage) (LPS-Aβ42 complex; [morin] 50 nM): 32.1% | time (apparent lifetime of the non-equilibrium interaction) (LPS-Aβ42 complex; [morin] 50 nM): 531 s | ln(γ) (LPS-Aβ42 complex; [morin] 100 nM): 4.22 | Δt = tw/morin − tw/o morin (LPS-Aβ42 complex; [morin] 100 nM): 275 s | γ (lifetime increment percentage) (LPS-Aβ42 complex; [morin] 100 nM): 68.4% | time (apparent lifetime of the non-equilibrium interaction) (LPS-Aβ42 complex; [morin] 100 nM): 677 s | ln(γ) (LPS-Aβ42 complex; [morin] 200 nM): 4.42 | Δt = tw/morin − tw/o morin (LPS-Aβ42 complex; [morin] 200 nM): 335 s | γ (lifetime increment percentage) (LPS-Aβ42 complex; [morin] 200 nM): 83.3% | time (apparent lifetime of the non-equilibrium interaction) (LPS-Aβ42 complex; [morin] 200 nM): 737 s | n, power to which bait concentration is taken (slope of ln(γ) versus ln([morin])) (LPS-Aβ42 complex; linear regression of Table S1 data): 0.76±0.10
Compound: O=c1c(O)c(-c2ccc(O)cc2O)oc2cc(O)cc(O)c12 [morin]
rescue effect of Aβ42-induced cell apoptosis (SH—SY5Y neuronal cells; Aβ42 100 μM): in a dose-dependent manner; also recorded: could be observed | rescue of Aβ42-induced cell death by small baits alone (SH—SY5Y neuronal cells; Aβ42 100 μM): could not alleviate Aβ42-induced cell death | residual Aβ42 levels from the total lysate (SH—SY5Y cells): significantly decreased; also recorded: dose-dependent depletion of Aβ42 | effect on the oscillatory event (lifetime) of the LPS-Aβ42 complex (LPS-Aβ42 complex): extended; also recorded: significant prolongation; also recorded: significant time extension; also recorded: prolonged in a dose-dependent manner

effect on the oscillatory event (lifetime) of the LPS-Aβ42 complex (LPS-Aβ42 complex): did not perturb the oscillatory event
Compound: O=c1c(O)c(-c2cc(O)c(O)c(O)c2)oc2cc(O)cc(O)c12 [myricetin]

effect on the oscillatory event (lifetime) of the LPS-Aβ42 complex (LPS-Aβ42 complex): did not perturb the oscillatory event
Compound: CCN(CC)CCCC(C)Nc1c2ccc(Cl)cc2nc2ccc(OC)cc12 (centres unmarked) [quinacrine dihydrochloride]

effect on the oscillatory event (lifetime) of the LPS-Aβ42 complex (LPS-Aβ42 complex): did not perturb the oscillatory event
Compound: O=C(/C=C/c1ccc(O)c(O)c1)O[C@H](Cc1ccc(O)c(O)c1)C(=O)O [rosmarinic acid]

The next lines start with the compound.

Compound: O=C(O[C@@H]1Cc2c(O)cc(O)cc2O[C@@H]1c1cc(O)c(O)c(O)c1)c1cc(O)c(O)c(O)c1 [EG, epigallocatechin gallate]
rescue of Aβ42-induced cell death by small baits alone (SH—SY5Y neuronal cells; Aβ42 100 μM): could not alleviate Aβ42-induced cell death | residual Aβ42 levels from the total lysate (SH—SY5Y cells): not observed; also recorded: no impact on the degradation of Aβ42 | effect on the oscillatory event (lifetime) of the LPS-Aβ42 complex (LPS-Aβ42 complex): did not perturb the oscillatory event

Compound: O=C(OC[C@H]1O[C@@H](OC(=O)c2cc(O)c(O)c(OC(=O)c3cc(O)c(O)c(O)c3)c2)[C@H](OC(=O)c2cc(O)c(O)c(OC(=O)c3cc(O)c(O)c(O)c3)c2)[C@@H](OC(=O)c2cc(O)c(O)c(OC(=O)c3cc(O)c(O)c(O)c3)c2)[C@@H]1OC(=O)c1cc(O)c(O)c(OC(=O)c2cc(O)c(O)c(O)c2)c1)c1cc(O)c(O)c(OC(=O)c2cc(O)c(O)c(O)c2)c1 [tannic acid]
effect on the oscillatory event (lifetime) of the LPS-Aβ42 complex (LPS-Aβ42 complex): did not perturb the oscillatory event

Compound: Lipopolysaccharide [LPS]
cell viability (SH—SY5Y neuronal cells; LPS of Aβ42 solution removed): less than 10% | viability of neuronal cells in medium containing Aβ42 (SH—SY5Y neuronal cells; high dose (1000 nM) of LPS, Aβ42 100 μM): 100% | effect on secondary structure of Aβ42 (CD spectra) (Aβ42 [1]): does not initiate the unfolding of the secondary structure of Aβ42 | effect on thermally induced protein dynamics of Aβ42 (Aβ42 [2]): retarded the upward response | lifetime of mass oscillation (LPS-Aβ42 complex; LPS anchored on sensor, Aβ42, FSM, no bait): less than 30 min

Compound: chondroitin sulfate sodium [CS]
rescue effect of Aβ42-induced cell apoptosis (SH—SY5Y neuronal cells; Aβ42 100 μM): not observed | rescue of Aβ42-induced cell death by small baits alone (SH—SY5Y neuronal cells; Aβ42 100 μM): could not alleviate Aβ42-induced cell death | residual Aβ42 levels from the total lysate (SH—SY5Y cells): not observed; also recorded: no impact on the degradation of Aβ42 | effect on the oscillatory event (lifetime) of the LPS-Aβ42 complex (LPS-Aβ42 complex): shortened the binding event; also recorded: shortening
